Laboratory results as given in patent EP0974351A2, “Medicament for preventing and treating gastrointestinal damage” (JOUVEINAL, priority 1998, dated 2000).

Columns and labels:
Anxiety-Related Behavior = experiment: Elevated plus maze, anxiety-related behavior 8 hours after ethanol withdrawal in mice; format: in vivo, Male albino mice of the outbred TO strain
Experimental: Male albino mice of the outbred TO strain (Bantin and Kingman, UK) were used in all studies. The weight ranged from 25 to 35 g, with no more than a 5 g range in any single experiment. The mice were housed, eight per cage, at 21°C ± 1°C, with 55 ± 10% relative humidity, and a 12-hour light/dark cycle with the light phase between 09:00 to 21:00. All mice received ad libitum access to tap water and standard laboratory chow (RM-1, Special Diet Services, UK) until their use in experiments or until their diet was replaced with a liquid diet.
Ethanol was administered in a liquid diet schedule. All mice received control diet for an initial 2-day period. Ethanol treated mice then received a diet containing 3.5% (v/v) ethanol/water for 2 days, followed by a diet containing 7% ethanol for a further 5 days. The average intake was 22 to 30 g/kg/day. Control groups were pair-fed a control diet, balanced isocalorifically to match the ethanol containing diet. There were no differences in the weights of the ethanol-treated and control mice at the end of the treatment periods. When mice were withdrawn from the ethanol (between 07:00 AM and 09:00 AM), they were provided with tap water until their use in experiments.
Gabapentin was dissolved in saline, the solution being made freshly each testing day. Intraperitoneal (i.p.) injections of either gabapentin, 10 mL/kg, or saline, were given immediately on withdrawal from the ethanol treatment, in the studies on the handling responses and 2 hours prior to measurement of audiogenic seizures. In the experiments using the elevated plus maze, gabapentin or saline was injected i.p. at 8 hours after the removal of the ethanol diet, and the mice placed on the plus maze 60 minutes after the injections. In the studies on motor co-ordination (ataxia) and on locomotor activity, gabapentin or saline was injected to ethanol-naive chow fed mice immediately before testing. Measurements were then made for 60 minutes for the ataxia study, and for 30 minutes in the case of the locomotor activity.
Mice were withdrawn from the ethanol diet at 7:00 AM and tested for anxiety-related behavior 8 hours later using a murine elevated plus-maze. It was constructed of perspex with two opposing open arms (30 × 5 × 0.25 cm) and two opposing closed arms (30 × 5 × 15 cm) which extended from a central platform (5 × 5 cm). The floor was of matt black perspex. The animals were acclimatized to the experimental room 1 hour prior to experimentation. Experiments were conducted under dim red light, and each 5 minute session was video-taped for later analysis, by an observer unaware of the prior treatment. During this analysis (Observer 3.0, Noldus Information Technology, Wageningen, Netherlands) measurements were made of the time spent on each arm of the maze, the number of entries onto each arm and rearing activity. Measures were also made as described in Table 3.
The results of the handling response ratings were compared by nonparametric two-way analysis of variance, designed for repeat measures on the same animal. The results of the area under the curve calculations were compared by the Mann-Whitney U-test. The convulsion incidence was analyzed by Fisher's exact probability test. […] The ataxia measurements were analyzed by the Mann-Whitney U-test and the locomotor activity by Student's t-test.

[1] = test system: Abdominal Response Induced by Rectal Distension; experiment: Abdominal response induced by rectal distension in rats (electromyography); format: in vivo, Male Wistar rats
Excerpt: The GABA analogs also have been evaluated for their ability to control and treat gastrointestinal disorders characterized as IBD and IBS. The assay utilized to evaluate the GABA analogs measures the effects of compound on lipopolysaccharide-induced delayed rectal allodynia in rats. Intraperitoneal (IP) injections of the endotoxin lipopolysaccharide (LPS) are known to induce long-lasting hyperalgesia in somatic pain models. The following assay was designed to evaluate the effect of IP injections of LPS on pain visceral threshold in an experimental model of rectal distension.
Male Wistar rats weighing 250 to 350 g were surgically prepared for electromyography, according to a previously described technique. Rats were anesthetized by i.p. injection of acepromazine and ketamine (Imalgene 1000, Rhöne-Mérieux, Lyon, France) at doses of 0.6 and 120 mg/kg, respectively. […] Electrodes were exteriorized on the back of the neck and protected by a glass tube attached to the skin. Animals were individually housed in polypropylene cages and kept in a temperature-controlled room (21°C). They were allowed free access to water and food (UAR pellets, Epinay, France).
Electromyographic recording began 5 days after surgery. The electrical activity of abdominal striated muscles was recorded with an electroencephalograph machine (Mini VIII, Alvar, Paris, France) using a short-time constant (0.03 sec) to remove low-frequency signals (<3 Hz) and a paper speed of 3.6 cm/minute.
Rats were placed in plastic tunnels (6 cm diameter; 25 cm length) where they could not move, escape or turn around, in order to prevent damage to the balloon. They are accustomized to this procedure for 3 or 4 days before rectal distension (RD) in order to minimize stress reaction during experiments. […] The balloon used for distension was an arterial embolectomy catheter (Fogarty, Edwards Laboratories, Inc., Santa Ana, USA). RD was performed by insertion of the balloon (2-mm diameter; 2-cm long) in the rectum, at 1 cm of the anus, the catheter being fixed at the tail. It was inflated progressively by step of 0.4 mL, from 0 to 1.6 mL, each step of inflation lasting 5 minutes. To detect possible leakage, the volume of water introduced in the balloon was checked by complete removal with a syringe at the end of the distension period.
In a first series of experiments, a group of 89 rats were submitted to gradual rectal distention. The animals were previously (30 minutes) treated by gabapentin at doses of 30 and 100 mg/kg IP or its vehicle ([…]).
Statistical analysis of the number of abdominal contractions occurring during each 5-minute period during RD was performed by one-way ANOVA followed by Student's paired t-test. Values were expressed as the mean ± SEM, and differences were considered significant for p <0.05.

Q: For `NCC1(CC(=O)O)CCCCC1` [Gabapentin, 1-(aminomethyl)-cyclohexane acetic acid], which “decrease in the percentage time spent on the open arms caused by ethanol withdrawal” value (Anxiety-Related Behavior; gabapentin 50 mg/kg i.p. 60 min before test, p <0.05 vs saline) is on record?
A: decreased this effect

Q: And the “decrease in the percentage time spent on the open arms caused by ethanol withdrawal” value (Anxiety-Related Behavior; gabapentin 100 mg/kg i.p. 60 min before test, p <0.01 vs saline)?
A: decreased this effect

Q: And the “mean time on the open arms in control animals” value (Anxiety-Related Behavior; gabapentin 100 mg/kg i.p., control diet, mean increased)?
A: not significantly different from controls with saline

Q: And the “number of protected head dips in control animals” value (Anxiety-Related Behavior; gabapentin 100 mg/kg i.p., control diet, p <005 (so in the source))?
A: significantly decreased

Q: And the “increase in protected head dips in mice undergoing ethanol withdrawal” value (Anxiety-Related Behavior; gabapentin 100 mg/kg i.p., p <0.01 compared with saline)?
A: significantly reduced

Q: What about the “Number of abdominal contractions/5 minutes” value ([1]; Gabapentin 30 mg/kg IP 30 min before, volume of distension 0.4mL, vehicle 4.4 ± 1.6, mean ± SEM) of the same compound?
A: 5.0 ± 2.1 abdominal contractions/5 minutes

Q: And the “% of reduction vs vehicle” value ([1]; Gabapentin 30 mg/kg IP, volume of distension 0.8 mL)?
A: -45%

Q: What about the “Number of abdominal contractions/5 minutes” value ([1]; Gabapentin 30 mg/kg IP, volume of distension 0.8 mL, vehicle 19.1 ± 2.8, p <0.01) of the same compound?
A: 10.6 ± 3.4 abdominal contractions/5 minutes

Q: And the “% of reduction vs vehicle” value ([1]; Gabapentin 30 mg/kg IP, volume of distension 1.2 mL)?
A: -31.2%

Q: And the “Number of abdominal contractions/5 minutes” value ([1]; Gabapentin 30 mg/kg IP, volume of distension 1.2 mL, vehicle 23.4 ± 2.6, p <0.05)?
A: 16.1 ± 2.3 abdominal contractions/5 minutes

Q: What about the “Number of abdominal contractions/5 minutes” value ([1]; Gabapentin 100 mg/kg IP, volume of distension 0.4mL, vehicle 3.9 ± 1.8) of the same compound?
A: 2.0 ± 1.4 abdominal contractions/5 minutes

Q: What about the “% of reduction vs vehicle” value ([1]; Gabapentin 100 mg/kg IP, volume of distension 0.8 mL) of the same compound?
A: -61.2%

Q: And the “Number of abdominal contractions/5 minutes” value ([1]; Gabapentin 100 mg/kg IP, volume of distension 0.8 mL, vehicle 19.6 ± 2.3, p <0.01)?
A: 7.6 ± 3.4 abdominal contractions/5 minutes

Q: What about the “Number of abdominal contractions/5 minutes” value ([1]; Gabapentin 100 mg/kg IP, volume of distension 1.2 mL, vehicle 19.1 ± 2.3) of the same compound?
A: 16.7 ± 2.9 abdominal contractions/5 minutes
